# Data taken from ChEMBL document CHEMBL1287720, “Inhibition of human neuraminidase 3 (NEU3) by C9-triazole derivatives of 2,3-didehydro-N-acetyl-neuraminic acid” (Bioorg Med Chem Lett, 2010).
# Biological target: T1, Sialidase-3 (Homo sapiens, UniProt Q9UQ49)
# T1 sequence (Q9UQ49 whole entry): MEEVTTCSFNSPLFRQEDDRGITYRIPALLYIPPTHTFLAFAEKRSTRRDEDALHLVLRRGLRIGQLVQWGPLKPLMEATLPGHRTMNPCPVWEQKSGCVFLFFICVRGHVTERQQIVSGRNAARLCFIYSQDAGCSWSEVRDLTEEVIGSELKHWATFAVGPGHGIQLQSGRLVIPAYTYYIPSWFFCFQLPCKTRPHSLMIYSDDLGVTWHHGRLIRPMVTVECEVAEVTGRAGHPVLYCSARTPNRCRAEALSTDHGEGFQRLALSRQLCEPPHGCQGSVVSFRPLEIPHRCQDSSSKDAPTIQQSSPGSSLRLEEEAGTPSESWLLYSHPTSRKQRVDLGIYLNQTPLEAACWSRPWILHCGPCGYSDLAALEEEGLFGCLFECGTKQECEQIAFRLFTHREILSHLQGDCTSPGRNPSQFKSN
# Test: not given; call rule not given here
row,Structure (SMILES),IC50 [µM]
1,CC(=O)N[C@H]1[C@H]([C@H](O)[C@H](O)CN=[N+]=[N-])OC(C(=O)O)=C[C@@H]1O,70
2,CC(=O)N[C@H]1[C@H]([C@H](O)[C@H](O)Cn2cc(-c3ccccc3)nn2)OC(C(=O)O)=C[C@@H]1O,20
3,CCCCCCc1cn(C[C@@H](O)[C@@H](O)[C@@H]2OC(C(=O)O)=C[C@H](O)[C@H]2NC(C)=O)nn1,23
4,CCOc1cn(C[C@@H](O)[C@@H](O)[C@@H]2OC(C(=O)O)=C[C@H](O)[C@H]2NC(C)=O)nn1,300
5,CCOC(OCC)c1cn(C[C@@H](O)[C@@H](O)[C@@H]2OC(C(=O)O)=C[C@H](O)[C@H]2NC(C)=O)nn1,130
6,CC(=O)N[C@H]1[C@H]([C@H](O)[C@H](O)Cn2cc(COc3ccccc3)nn2)OC(C(=O)O)=C[C@@H]1O,45
7,CC(=O)N[C@H]1[C@H]([C@H](O)[C@H](O)Cn2cc(CO)nn2)OC(C(=O)O)=C[C@@H]1O,300
8,CC(=O)N[C@H]1[C@H]([C@H](O)[C@H](O)Cn2cc(CCO)nn2)OC(C(=O)O)=C[C@@H]1O,400
9,CC(=O)N[C@H]1[C@H]([C@H](O)[C@H](O)Cn2cc(CCCO)nn2)OC(C(=O)O)=C[C@@H]1O,500
10,CC(=O)N[C@H]1[C@H]([C@H](O)[C@H](O)Cn2cc(C(C)(C)O)nn2)OC(C(=O)O)=C[C@@H]1O,300
11,[N-]=[N+]=NCC(=O)N[C@H]1[C@H]([C@H](O)[C@H](O)CO)OC(C(=O)O)=C[C@@H]1O,21
12,O=C(Cn1cc(-c2ccccc2)nn1)N[C@H]1[C@H]([C@H](O)[C@H](O)CO)OC(C(=O)O)=C[C@@H]1O,> 500
13,CCCCCCc1cn(CC(=O)N[C@H]2[C@H]([C@H](O)[C@H](O)CO)OC(C(=O)O)=C[C@@H]2O)nn1,> 500
14,CCOc1cn(CC(=O)N[C@H]2[C@H]([C@H](O)[C@H](O)CO)OC(C(=O)O)=C[C@@H]2O)nn1,> 500
15,CCOC(OCC)c1cn(CC(=O)N[C@H]2[C@H]([C@H](O)[C@H](O)CO)OC(C(=O)O)=C[C@@H]2O)nn1,> 500
16,O=C(Cn1cc(COc2ccccc2)nn1)N[C@H]1[C@H]([C@H](O)[C@H](O)CO)OC(C(=O)O)=C[C@@H]1O,> 500
17,O=C(Cn1cc(CO)nn1)N[C@H]1[C@H]([C@H](O)[C@H](O)CO)OC(C(=O)O)=C[C@@H]1O,> 500
18,O=C(Cn1cc(CCO)nn1)N[C@H]1[C@H]([C@H](O)[C@H](O)CO)OC(C(=O)O)=C[C@@H]1O,> 500
19,O=C(Cn1cc(CCCO)nn1)N[C@H]1[C@H]([C@H](O)[C@H](O)CO)OC(C(=O)O)=C[C@@H]1O,> 500
20,CC(C)(O)c1cn(CC(=O)N[C@H]2[C@H]([C@H](O)[C@H](O)CO)OC(C(=O)O)=C[C@@H]2O)nn1,> 500
21,CC(=O)N[C@H]1[C@H]([C@H](O)[C@H](O)CO)OC(C(=O)O)=C[C@@H]1O [NEU5AC2EN],48

# Biological target: T1, Sialidase-3
# Test: Inhibition of human neuraminidase 3
row,Structure (SMILES),IC50
1,CC(=O)N[C@H]1[C@H]([C@H](O)[C@H](O)CO)O[C@@](O)(C(=O)O)C[C@@H]1O,Not Active

# Biological target: T1, Sialidase-3
# Test: Inhibition of human neuraminidase 3 assessed as inhibition of 4-methylumbelliferyl-alpha-D-N-acetylneuraminic acid hydrolysis
row,Structure (SMILES),IC50 [µM]
1,CC(=O)N[C@H]1[C@H]([C@H](O)[C@H](O)CNC(=O)c2ccccc2)OC(C(=O)O)=C[C@@H]1O,320
2,CC(=O)NC[C@@H](O)[C@@H](O)[C@@H]1OC(C(=O)O)=C[C@H](O)[C@H]1NC(C)=O,> 1000
3,CC(=O)N[C@H]1[C@H]([C@H](O)[C@H](O)CO)OC(C(=O)O)=C[C@@H]1O [NEU5AC2EN],43

# Biological target: T1, Sialidase-3
# Test: Inhibition of human neuraminidase 3 assessed as inhibition of GM3 hydrolysis
row,Structure (SMILES),IC50 [mM]
1,CCOC(=O)C1=C[C@@H](OC(CC)CC)[C@H](NC(C)=O)[C@@H](N)C1 [OSELTAMIVIR],> 10
